Test results reported in US7005434B2, “Compounds and uses thereof” (SB Corporation, priority 2001, dated 2006).

Test system: angiogenesis (vascular density) in air pouch granuloma
Test: Murine air pouch granuloma model of inflammatory angiogenesis
Format: in vivo, mice
Conditions: positive control
Source text: C. Measurement of Angiogenesis in vivo—Murine Air Pouch Granuloma Model
The murine airpouch granuloma model of chronic inflammation (Kimura et al., 1985, J. Pharmacobio-Dyn., 8:393–400; Colville-Nash et al., 1995, J. Pharm. and Exp. Ther., 274:1463–1472) whose disclosure is incorporated herein by reference in its entirety, is characterized by inflammatory cell influx, fibrous tissue proliferation and intense angiogenesis. […] In addition, angiogenesis can be accurately quantitated by a vascular casting method.
Day −1, mice are anesthetized using Aerrane (isoflurane) gas (5%) or other approved methods, after which 3 mls of air is injected into the dorsal subcutaneous tissue using a 27 g needle. Mice are allowed to recover. […]
When the granuloma is removed it is weighed and then dried for 3 days at 45° C. and reweighed. […] The carmine content is then determined against a carmine red standard curve (0.5 to 2 mg/ml) generated in extracted tissue from non carmine treated animals and read at 490 nm. Sample and standard values are determined typically using DeltaSoft Elisa analysis software (Biometallics Inc., Princeton, N.J.). […]
The effect of compounds on vascular density is typically measured 6 days after induction of the granuloma. This time point has been determined to be at or near the peak of angiogenesis. […] Medroxyprogesterone has no effect on granuloma size as measured by dry weight.

medroxyprogesterone was tested. Which “maximum reduction (vascular density / vascular index)” value (measured 6 days after induction) did it give?
The value was 50%.

And the “effect on granuloma size as measured by dry weight” value?
Its value is “no effect”.
